In US20110136728A1, “METHODS OF INCREASING BONE FORMATION USING LEPTIN-RELATED PEPTIDES” (priority 2009, published 2011):
No end group written: not given here.

System: ob/ob mouse model
Test: Earlier study of OB3 and D-amino acid-substituted OB3 analogs: body weight gain, food and water intake, blood glucose
Type: in vivo
Conditions: mouse, in vivo
From the text: Single-point D-amino acid substitution was used to study the structure-function relationships of each amino acid residue in OB3, and to increase its efficacy. The restricted domain represented by OB3 contains a functional epitope, which has the ability to mimic at least some of the effects of leptin on energy balance and glucose homeostasis.
The design of peptide ligands involved the introduction of conformational constraints into native sequences by techniques that include, but are not limited to, D-amino acid substitution or cyclization. (Hruby and Bonner, Methods Mol Biol. 35:201-40 (1994)). Systematic replacement of L-amino acids by their D-amino acid isoforms was used to determine the stereostructural requirements of specific residues in a peptide for peptide-receptor interaction, and to assess the contribution of certain secondary structural motifs, e.g., α-helix or β-turn, to the bioactivity of the peptide. (Hruby, Biopolymers 33(7):1073-82 (1993) and Hruby, Life Sci. 52(10):845-55 (1993)). This approach increased peptide resistance to enzymatic hydrolysis, and to enhance the properties of biologically active peptides, including receptor binding, functional potency, and duration of action. (See Fauchere et al., Adv. Drug Res., 23:127-139 (1992); Doherty et al., J. Med. Chem., 36:2585-2594 (1993); Kirby et al., J. Med. Chem., 36:3802-3808 (1993); Morita et al., FEBS Lett., 353:84-88 (1994)).
(See Rozhayskaya-Arena M, et al., Endocrinology 141:2501-2517 (2000); Grasso P et al., Regulatory Pep. 101:123-129 (2001)).

SCSLPQT [OB3, amino acid residues 116-122 of mouse leptin]
maximal reduction of blood glucose levels: approximately 100 mg/dl
